The source of these data is patent US8653095B2, “Small molecules with antimalarial activity” (Radix Pharmaceuticals, Inc., priority 2011, dated 2014).

For series [1], the system named is P. falciparum PH3. The experiment in a line: In vitro blood stage antimalarial efficacy, [3H]hypoxanthine uptake, strain PH3. The series is classed as cell-based. Particulars: Plasmodium falciparum; read-out: IC50. As to the method: (§1) In Vitro Blood Stage Antimalarial Efficacy Evaluation. New compounds were tested against a panel of strains of P. falciparum.
(§2) Test compounds were initially dissolved in DMSO and diluted 400 fold in RPMI 1640 culture medium supplemented with 25 mM Hepes, 32 mM NaHCO3 and 10% Albumax I (Gibco, NY). These solutions were subsequently serially diluted two-fold with a Beckman Biomek® 1000 Robot (Fullerton, Calif.) over 11 different concentrations. The parasites were exposed to serial dilutions of each compound for 48 hrs and incubated at 37° C. with 5% O2, 5% CO2 and 90% N2 prior to the addition of [^3H]hypoxanthine. After a further incubation of 18 hrs, parasite DNA was harvested from each microtiter well using Packard Filtermate™ 196 Harvester (Meriden, Conn.) onto glass filters. Uptake of [^3H]hypoxanthine was measured with a Packard TopCount Liquid Scintillation Counter (Packard Instrument Co.).

Series [2] concerns P. falciparum 3D7. The experiment in a line: In vitro blood stage antimalarial efficacy, [3H]hypoxanthine uptake, strain 3D7. The series is classed as cell-based. Particulars: Plasmodium falciparum, read-out: IC50. As for the experimental part: as §1, §2
Series [3] deals with P. falciparum DD2. The experiment in a line: In vitro blood stage antimalarial efficacy, [3H]hypoxanthine uptake, strain DD2. Format: cell-based. Particulars: Plasmodium falciparum, read-out: IC50. As for the experimental part:
as §1, §2

For series [4], the system named is P. falciparum TM6. The experiment in a line: In vitro blood stage antimalarial efficacy, [3H]hypoxanthine uptake, strain TM6. Particulars: Plasmodium falciparum; read-out: IC50. The series is classed as cell-based. As for the experimental part: as §1, §2
Series [5] has as its system P. falciparum K1. Nature of the series: In vitro blood stage antimalarial efficacy, [3H]hypoxanthine uptake, strain K1. Format: cell-based. Particulars: Plasmodium falciparum, read-out: IC50. As to the method: as §1, §2
Series [6] deals with P. falciparum TM4. Nature of the series: In vitro blood stage antimalarial efficacy, [3H]hypoxanthine uptake, strain TM4. Format: cell-based. Particulars: Plasmodium falciparum; read-out: IC50. As to the method: as §1, §2
For series [7], the system named is P. berghei NK-65. Nature of the series: In vivo efficacy in Swiss mice infected with P. berghei. Particulars: Plasmodium berghei.
Series [8] relates to P. falciparum African NF54 strain. Nature of the series: In vivo efficacy in immunocompromised BXN mice infected with P. falciparum NF54. Particulars: Plasmodium falciparum, 96 h, oral once daily for 4 days. From the text: (§3) Antimalarial efficacy data was obtained by evaluating new compounds in two rodent models: (I) Swiss mice infected with rodent malaria strain P. berghei; (II) Immunocompromised BXN mice infected with either the sensitive P. falciparum African NF54 strain or the multi-drug resistant P. falciparum Thailand T24 strain.

Series [9] deals with multi-drug resistant P. falciparum Thailand T24 strain. Nature of the series: In vivo efficacy in immunocompromised BXN mice infected with P. falciparum T24. Particulars: Plasmodium falciparum, 96 h, oral once daily for 4 days.
Text: as §3

The subject of series [10] is rodent P. berghei. Particulars: for Primary therapeutic index / Secondary therapeutic index: Sprague-Dawley, rat, in vivo, po; for MCureD (minimum curative dose): rodent P. berghei, administered orally. As for the experimental part: Antimalarial potency was measured by determination of the MCD (minimum clearance dose), a commonly used efficacy measurement. The primary therapeutic indices, which were obtained by using the MCDs as the effective parameters, were calculated. A secondary therapeutic indices measure of antimalarial potency was determined by use of the dose for the MCureD (minimum curative dose).

Series [11] deals with Plasmodium cynomolgi sporozoite. Nature of the series: Causal prophylactic activity in P. cynomolgi sporozoite-challenged Rhesus monkeys. Format: in vivo. Particulars: PO, 15 mg/kg, 1 daily for 3 days, one value per monkey. The source says: Two monkeys were used in each test group. The control animals developed parasitemia in about 10 days after inoculation of about 1×10^6 P. cynomolgi sporozoites harvested from Anopheles dirus. All the monkeys received three treatments, once a day for three consecutive days beginning a day before (−1, 0,+1) the sporozoites challenge. The control monkeys (group 1) received HECT and the experimental animals received testing compound by using 8 Fr., 15-in. long nasogastric tubes.

Series [12] deals with Plasmodium cynomolgi. Nature of the series: Radical curative activity in relapsed Rhesus monkeys. Format: in vivo. Particulars: for Monkeys cured: co-administered with chloroquine; for Days post-treatment (relapse) / Results (radical curative test): with CQ 10 mg/kg/day for 7 days, one value per monkey. From the text: Compounds with antihypnozoite activity will delay the relapse or radically cure the infection. […] Relapse was expected in the control group. Relapse in the treated group indicates failure of the test compounds. […] After standard treatment, blood smears were monitored daily for 4 consecutive days of negative results and 2 times weekly for 2 weeks.

Series [13] is described as follows: in vivo. Particulars: Sprague-Dawley, rat, po; for MTD at 2 weeks: MTD (maximum tolerated dose).
Where [14] appears, read: 96 h, P. berghei NK-65, Swiss mice, oral once daily for 4 days, read-out: ED50.
[15] abbreviates: read-out: ED50 (the dose leading to 50% parasite growth inhibition compared to the blank control).
Where [16] appears, read: Drug 2 at 15 mg/kg PO 1 daily for 3 days.
Setting [17] is: Drug 2 at 30 mg/kg PO 1 daily for 3 days.

“And” between values parts separate entries of the source, which are not always exact repeats. Equal values may be shown once. “Also recorded” adds a separate entry of the source. Read-outs that look alike come from different tables or passages of the source. Some results are limits rather than exact numbers.

As a reminder, the IC50 is the concentration that inhibits the measured activity by half. The ED50 is the dose at which the effect has come halfway, by size or by number of responders. One may read the NOAEL as the highest dose or exposure tested at which no adverse effect was seen. As a reminder, the MTD is the highest dose tested that stayed within the study's limit of toxicity. For the compound `CC[C@@H](N)[C@H](O)[C@H](O)[C@H](COC)[C@@H]1CC[C@@]23CC24c2nc5ccc(OC)cc5cc2C(=O)N[C@H]4CN13` (some centres unmarked) [Formula B], the IC50 in [1] is 0.17 ± 0.04 nM; in series [2], 0.19 ± 0.04 nM; in series [3] it was 0.27 ± 0.07 nM; in series [4], 0.18 ± 0.03 nM; in series [5] it was 0.22 ± 0.05 nM; in [6], 0.23 ± 0.04 nM. Also, the ED50 was 0.13 mg/kg in series [7] (setting [14]), less than 1 mg/kg in series [7] (setting [15]), 0.24 mg/kg in [8] and 0.27 mg/kg in series [9]. Further, the Primary therapeutic index in [10] amounted to 237. In series [10], this compound gave a Secondary therapeutic index of 53. Also, the “MCureD (minimum curative dose)” value in series [10] amounted to 14.2 mg/kg. Moreover, in series [11], the “Parasite patency (days postinoculation)” value is 41 days and 55 days. For the same compound, the Monkeys cured result in [12] (15 mg/kg/day level) is recorded as “one out of two monkeys”; in [12] (30 mg/kg/day level), “all monkeys”. Also, the “Days post-treatment (relapse)” value was 42 days and no relapse in [12] (setting [16]); “no relapse” in [12] (setting [17]). Also, the “Results (radical curative test)” value was “delayed relapse; also recorded: radical curative” in [12] (setting [16]) and “radical curative” in series [12] (setting [17]). The NOAEL at 2 weeks in series [13] was more than 100 mg/kg/day. Moreover, the MTD at 2 weeks in [13] was more than 500 mg/kg.
On to `COC[C@@H]([C@@H](O)[C@@H](O)[C@H](N)Cc1ccccc1)[C@@H]1CC[C@@]23CC24c2nc5ccc(OC)cc5cc2C(=O)N[C@H]4CN13` (some centres unmarked) [Formula C], for which the IC50 in [1] came out at 0.19 ± 0.04 nM; in series [2] it was 0.22 ± 0.05 nM; in series [3] it was 0.16 ± 0.03 nM; in series [4] it was 0.09 ± 0.02 nM; in series [5] it was 0.25 ± 0.04 nM; in series [6], 0.31 ± 0.07 nM. The 50% effective dose (ED50) in series [7] (setting [14]) is 0.11 mg/kg; in series [7] (setting [15]), less than 1 mg/kg; in series [8], 0.2 mg/kg; in series [9], 0.18 mg/kg. In series [10], this compound showed a Primary therapeutic index of 290. This compound also showed a Secondary therapeutic index in [10] of 72. Moreover, the “MCureD (minimum curative dose)” value in [10] was 9.82 mg/kg. In addition, the “Parasite patency (days postinoculation)” value in series [11] is 48 days and 64 days. For the same compound, the results for the Monkeys cured result in series [12] (15 mg/kg/day level) and in series [12] (30 mg/kg/day level) were “one out of two monkeys” and “all monkeys”, respectively. The “Days post-treatment (relapse)” value in series [12] (setting [16]) was 53 days and no relapse; in series [12] (setting [17]), “no relapse”. Besides, the “Results (radical curative test)” value in series [12] (setting [16]) is given as “delayed relapse; also recorded: radical curative”; in [12] (setting [17]), “radical curative”. In series [13], this compound came in with an NOAEL at 2 weeks of more than 100 mg/kg/day. Moreover, the MTD at 2 weeks in series [13] was more than 500 mg/kg.
